{"source": "patent US20230136301A1", "about": "“Corticosteriod Reduction in Treatment with Anti-CD38 Antibody” (Janssen Biotech, Inc., priority 2021, published 2023)", "origin": "cited, not measured here", "key": {"patients with RRMM": {"test_system": "patients with RRMM", "details": "PAVO Part 2; follow-up 14.2 months; cited from earlier work"}, "[1]": {"test_system": "patients with multiple myeloma", "details": "cited from earlier work"}}, "data": [{"substance": "DARA SC: 1,800 mg daratumumab co-formulated with 30,000 U rHuPH20 (2,000 U/mL, 15 mL), manual subcutaneous injection", "values": [{"measurement": "Median duration of response", "setting": "patients with RRMM", "value": 15.7, "unit": "months"}, {"measurement": "ORR", "setting": "patients with RRMM", "value": 52, "unit": "%"}, {"measurement": "Median PFS", "setting": "[1]; COLUMBA primary analysis", "value": 5.6, "unit": "months"}, {"measurement": "Median duration of response", "setting": "[1]; COLUMBA, follow-up 7.5 months", "value": "not reached"}, {"measurement": "Overall response rate", "setting": "[1]; COLUMBA, median follow-up 7.5 months", "value": 41, "unit": "%"}]}]}
